Patent US10421722B2, “Sulfur-containing compounds targeting vesicular acetylcholine transporter” (Washington University, priority 2016, dated 2019)

How the values were obtained:
[1] = molecular target: VAChT (Rattus norvegicus (Rat), UniProt Q62666); assay: Ex vivo autoradiography of rat brain; type: in vivo, Sprague-Dawley rat; conditions: for uptake ratio of radioactivity in striatum versus cerebellum: 30 slices, 60 min post-injection, tail vein; for brain distribution of radioactivity (autoradiograms): 1 h after injection
Method: Ex vivo autoradiography was performed on 6-8 month old male Sprague-Dawley rats to confirm the brain distribution of radiolabeled VAChT ligands. Mature male Sprague-Dawley rats were injected with ˜500 μCi of (−)-[^11C]3 or (−)-[^18F]9a via the tail vein under isoflurane/oxygen anesthesia, respectively. The rats were euthanized after 1 h and the brains were quickly removed and placed in a metal brain matrix with slots spaced at 1 mm intervals. The brains were then frozen in the matrix and sectioned into 100 μm coronal slices. Brain slices were carefully removed from the brain matrix razor blades and placed on a clear sheet covered with film and mounting on glass slides. Then, the brain sections were exposed to the film in an imaging cassette for 12 h before they were counted by the FLA7000. Photographic images were obtained using a flatbed scanner. […] There was also moderate uptake in other regions, which may be caused by the moderate binding activity to σ1 receptor. The quantification of autoradiography from entire 30 brain slices indicated the uptake ratio of radioactivity in striatum versus cerebellum reached 1.75 and 1.54, respectively. (FIGS. 6B and 6D)

[2] = tested on: VAChT; conditions: cynomolgus monkey, in vivo
Method: PET studies were performed on adult male cynomolgus monkeys (6-8 kg) with a MicroPET Focus 220 scanner (Concorde/CTI/Siemens Microsystems, Knoxville, Tenn.). The animal was anesthetized using an intramuscular injection with ketamine (10-20 mg/kg) and glycopyrrolate (0.013-0.017 mg/kg) and then transported to the PET scanner suit. After arrival, the animal was intubated with an endotracheal tube and anesthesia was maintained at 0.75-2.0% isoflurane/oxygen throughout the procedure, and then a percutaneous venous catheter was placed for radiotracer injection. A heated water blanket was used to keep the temperature at 37° C. In each MicroPET scanning session, the head was positioned supine in the adjustable head holder with the brain in the center of the field of view. A 10-min transmission scan was performed to check positioning; once confirmed, a 45 min transmission scan was obtained for attenuation correction. Subsequently, a 2 h dynamic emission scan was acquired after administration of 296-410 MBq of (−)-[^11C]3 or (−)-[^18F]9a via the venous catheter. PET scans were collected from 0-120 min with the following time frames: 3×1 min, 4×2 min, 3×3 min and 20×5 min. PET image reconstructed resolution was <2.0 mm full width half maximum for all 3 dimensions at the center of the field of view. Emission data were corrected using individual attenuation and model-based scatter correction and reconstructed using filtered back projection. The first baseline PET image for each animal acted as the target image with the MPRAGE and subsequent PETs co-registered using automated image registration program AIR. All MPRAGE-based volume of interest (VOI) analyses were accomplished by experienced investigators. For quantitative analyses, three-dimensional ROIs (striatum, cerebellum, frontal cortex, occipital cortex, temporal, midbrain, hippocampus and thalamus) were transformed to the baseline PET space and then overlaid on all reconstructed PET images to obtain time-activity curves. Activity measures were standardized to body weight and dose of radioactivity injected to yield standardized uptake value (SUV).

[3] = Radiometabolite analysis of NHP arterial plasma; type: in vivo, cynomolgus monkey
Method: In order to further understand the kinetic property, radioactive metabolite analysis on HPLC was performed for NHP plasma. (−)-[^18F]9a was chosen for this study because of the high uptake and longer half live of ^18F. Arterial blood samples (1.2-1.5 mL) were collected at 2, 5, 15, 30, and 60 min post-injection of the radiotracer in a heparinized syringe. Aliquots of whole blood (1 mL) were counted in a well counter, then centrifuged to separate red blood cells from plasma. Aliquots of plasma (400 μL) were deproteinated using ice-cold methanol (0.92 mL) and separated by centrifugation. The solvent extract was then injected onto HPLC to identify the percentage of radioactive parent compound versus any radiolabeled metabolites. The HPLC system consisted of an Agilent SB C-18 analytic HPLC column (250 mm×4.6 mm) and an UV detector with wavelength set at 254 nm. The mobile phase was 43% acetonitrile in 0.1 M ammonium formate buffer (pH 4.5), and the flow rate was 1.0 mL/min. The HPLC fractions were collected at 1 min intervals for 16 min; each fraction was counted by a well counter to determine the radioactivity of each collection. The results were corrected for background radiation and physical decay.

Chain of VAChT (Rattus norvegicus (Rat), UniProt Q62666) (Q62666 whole entry): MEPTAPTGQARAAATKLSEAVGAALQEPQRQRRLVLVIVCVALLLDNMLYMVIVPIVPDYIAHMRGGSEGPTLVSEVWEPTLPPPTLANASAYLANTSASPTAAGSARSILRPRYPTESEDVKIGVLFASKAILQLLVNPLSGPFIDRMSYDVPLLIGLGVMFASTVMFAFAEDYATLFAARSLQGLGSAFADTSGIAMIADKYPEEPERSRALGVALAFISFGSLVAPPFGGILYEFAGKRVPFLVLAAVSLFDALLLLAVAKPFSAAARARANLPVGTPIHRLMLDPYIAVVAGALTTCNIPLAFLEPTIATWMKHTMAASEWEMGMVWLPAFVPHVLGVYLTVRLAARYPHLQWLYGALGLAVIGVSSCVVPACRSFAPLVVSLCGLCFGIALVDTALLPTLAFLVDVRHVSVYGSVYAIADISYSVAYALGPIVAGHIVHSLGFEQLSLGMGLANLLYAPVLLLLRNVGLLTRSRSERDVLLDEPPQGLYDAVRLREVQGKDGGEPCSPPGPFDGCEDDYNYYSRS

Row | SMILES | uptake ratio of radioactivity in striatum versus cerebellum [1] | brain distribution of radioactivity (autoradiograms) [1] | brain entry [2] | maximum standardized uptake value (SUV) in striatum [2] | regional brain accumulation [2] | time at which striatal SUV reached maximum [2] | percentage of parent compound in plasma ([3]; NHP arterial plasma, 2 min post-injection) | percentage of parent compound in plasma ([3]; NHP arterial plasma, 5 min post-injection) | percentage of parent compound in plasma ([3]; NHP arterial plasma, 15 min post-injection) | percentage of parent compound in plasma ([3]; NHP arterial plasma, 30 min post-injection) | percentage of parent compound in plasma ([3]; NHP arterial plasma, 60 min post-injection) | percentage of hydrophilic radioactive metabolite ([3]; NHP arterial plasma, peaked after 30 min) | metabolism in plasma ([3]; NHP plasma, HPLC metabolite analysis)
1 | [11CH3]Sc1ccc(C(=O)C2CCN([C@@H]3Cc4ccccc4C[C@H]3O)CC2)cc1 (single isomer, unassigned) [(−)-[^11C]3] | 1.75 | high accumulation in the VAChT enriched striatum | able to enter the NHP brain | 4.0 | highest accumulation in the striatal region | 10 min |  |  |  |  |  |  | 
2 | O=C(c1ccc(SCC[18F])cc1)C1CCN([C@@H]2Cc3ccccc3C[C@H]2O)CC1 (single isomer, unassigned) [(−)-[^18F]9a] | 1.54 | high accumulation in the VAChT enriched striatum | able to enter the NHP brain |  | highest accumulation in the striatal region | 6 min | 69% | 48% | 27% | 21% | 15% | 70% | quickly metabolized in the plasma
